Counter-ions that a name gives are not always drawn.
What was measured:
[1] = Bupivacaine release from FeCl3-crosslinked gels (HPLC); format: physicochemical; details: FeCl3-crosslinked 4% (w/v) gel with bupivacaine hydrochloride monohydrate, 2% SDS in PBS pH 7.4, 37° C.
Protocol: Sodium hyaluronate (1.4 m3/kg, approx. 800 kDa) and HA derivatives comprising mercaptosuccinic acid and thiophenol, as described in Example 60 and 61, were diluted to 4% (w/v) concentrations in deionized water and mixed with bupivacaine hydrochloride monohydrate (Sigma Aldrich B5274). The polymers were crosslinked using the addition of 2% FeCl3 solution in deionized water for 1:1 linking of carboxyl groups of sodium hyaluronate and chloride of FeCl3 and pH of the gels was adjusted to 6.5-7.5 using 0.25M NaOH solution. The release study buffer applied to each sample consisted of 2% (w/v) sodium dodecyl sulfate (SDS) dissolved in Phosphate buffered saline (pH 7.4, Sigma P3813). All samples were incubated at 37° C. and sampled for testing over 96 hours. For each timepoint, 0.25 ml of the sample was combined with 5 ml MeOH and then filtered through a 0.45 μm filter prior to analyzing using HPLC with a C18 column and 30:70 phosphate buffer (pH 5.0):methanol as mobile phase at 0.6 ml/min flow rate. The chromatogram was collected using a photodiode array detector at 205 nm and the amount of bupivacaine released was calculated from integral value of peak at the retention time of 7.1 minutes based on calibration performed previously.

[2] = Vancomycin hydrochloride release from FeCl3-crosslinked gels (HPLC); format: physicochemical; details: FeCl3-crosslinked 4% (w/v) gel, vancomycin hydrochloride 10% (w/w), PBS pH 7.4, 37° C.
Protocol: Sodium hyaluronate (1.4 m3/kg, approx. 800 kDa) and HA derivatives comprising mercaptosuccinic acid and thiophenol, as described in Example 59 and 60 were diluted to 4% (w/v) concentrations in deionized water and mixed with vancomycin hydrochloride (Sigma Aldrich PHR1732) at 10% (w/w) loading. The polymers were crosslinked using the addition of 2% FeCl3 solution (crosslinking agent) in deionized water for 1:1 linking of carboxyl groups of sodium hyaluronate and chloride of FeCl3 and pH of the gels was adjusted to 6.5-7.5 using 0.25M NaOH solution. The release study buffer applied to each sample consisted of phosphate buffered saline (pH 7.4, Sigma P3813). […] For each timepoint, 0.25 ml of the sample was combined with 5 ml H2O and then filtered through a 0.45 μm filter prior to analyzing using HPLC with a C18 column and 85:15 phosphate buffer (pH 3.0):methanol as mobile phase at 0.8 ml/min flow rate. The chromatogram was collected using a photodiode array detector at 205 nm and the amount of vancomycin hydrochloride released was calculated from integral value of peak at the retention time of 11.3 minutes based on calibration performed previously.

Row | SMILES | % Bupivacaine Released ([1]; 0 hours) [%] | % Bupivacaine Released ([1]; 1 hour) [%] | % Bupivacaine Released ([1]; 3 hours) [%] | % Bupivacaine Released ([1]; 6 hours) [%] | % Bupivacaine Released ([1]; 24 hours) [%] | % Vancomycin Hydrochloride Release ([2]; 0 hours) [%] | % Vancomycin Hydrochloride Release ([2]; 1 hour) [%] | % Vancomycin Hydrochloride Release ([2]; 3 hours) [%] | % Vancomycin Hydrochloride Release ([2]; 6 hours) [%] | % Vancomycin Hydrochloride Release ([2]; 24 hours) [%] | % Vancomycin Hydrochloride Release ([2]; 96 hours) [%]
1 | CCCCN1CCCCC1C(=O)Nc1c(C)cccc1C (centres unmarked) [Bupivacaine, bupivacaine hydrochloride monohydrate] | 0.00 | 72.54 | 70.10 | 71.43 | 83.46 |  |  |  |  |  | 
2 | CN[C@H](CC(C)C)C(=O)N[C@H]1C(=O)N[C@@H](CC(N)=O)C(=O)N[C@H]2C(=O)N[C@H]3C(=O)N[C@H](C(=O)N[C@H](C(=O)O)c4cc(O)cc(O)c4-c4cc3ccc4O)[C@H](O)c3ccc(c(Cl)c3)Oc3cc2cc(c3O[C@@H]2O[C@H](CO)[C@@H](O)[C@H](O)[C@H]2O[C@H]2C[C@](C)(N)[C@H](O)[C@H](C)O2)Oc2ccc(cc2Cl)[C@H]1O [Vancomycin, vancomycin hydrochloride] |  |  |  |  |  | 0.00 | 98.03 | 95.40 | 92.08 | 90.70 | 72.11

Reference: patent US12351656B2, “Functionalized and crosslinked polymers” (PMIDG, LLC, priority 2017, dated 2025)
